Source: PubChem BioAssay (NCI)
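Protocol summary: plate cells (96-well), add compound at 5 concentrations, incubate 48 h, interpolate endpoints linearly. GI50: concentration for 50% inhibition of growth. At the TGI there is no net growth.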

Assays:
Test in all cases: DTP human tumour cell line panel, 48 h
[1] = system: HCT-116 colon
[2] = system: RXF 393 renal
[3] = system: MOLT-4 leukemia
[4] = system: SW-620 colon
[5] = system: RPMI-8226 leukemia
[6] = system: NCI/ADR-RES ovarian
[7] = system: HCT-15 colon
[8] = system: 786-0 renal
[9] = system: ACHN renal
[10] = system: TK-10 renal
[11] = system: SK-OV-3 ovarian
[12] = system: MDA-MB-231 breast
[13] = system: SK-MEL-2 melanoma
[14] = system: OVCAR-5 ovarian
[15] = system: MDA-MB-435
[16] = system: NCI-H522 lung
[17] = system: PC-3 prostate
[18] = system: U251 CNS
[19] = system: BT-549 breast
[20] = system: SF-268 CNS
[21] = system: A498 renal
[22] = system: HCC-2998 colon
[23] = system: LOX IMVI melanoma
[24] = system: UACC-257 melanoma
[25] = system: HOP-62 NSCLC
[26] = system: KM12 colon
[27] = system: HL-60(TB) leukemia
[28] = system: SNB-19 CNS
[29] = system: T-47D breast
[30] = system: CCRF-CEM leukemia
[31] = system: DU-145 prostate
[32] = system: OVCAR-8 ovarian
[33] = system: COLO 205 colon
[34] = system: OVCAR-3 ovarian
[35] = system: IGROV1 ovarian
[36] = system: SR leukemia
[37] = system: NCI-H460 lung
[38] = system: SK-MEL-28 melanoma
[39] = system: SK-MEL-5 melanoma
[40] = system: A549 NSCLC
[41] = system: MCF7 breast
[42] = system: OVCAR-4 ovarian
[43] = system: CAKI-1 renal
[44] = system: K-562 leukemia
[45] = system: NCI-H23 lung
[46] = system: SF-295 CNS
[47] = system: UO-31 renal
[48] = system: M14 melanoma
[49] = system: SN12C renal
[50] = system: SF-539 CNS
[51] = system: HS 578T breast
[52] = system: MALME-3M melanoma
[53] = system: SNB-75 CNS
[54] = system: UACC-62 melanoma
[55] = system: HOP-92 NSCLC
[56] = system: HT29 colon
[57] = system: NCI-H226 lung

**Q.** For `C[C@]12CC[C@@H]3c4ccc(O)cc4CC[C@H]3[C@@H]1CC[C@@H]2NS(=O)(=O)c1cccc(OC(F)(F)F)c1`, which GI50 [1] is on record?
**A.** 1.84 µM

**Q.** What about the TGI [1] of the same molecule?
**A.** 3.53 µM

**Q.** And the GI50 [2]?
**A.** 1.64 µM

**Q.** What about the TGI [2] of the same molecule?
**A.** 3.6 µM

**Q.** And the GI50 [3]?
**A.** 2.63 µM

**Q.** And the TGI [3]?
**A.** 12.1 µM

**Q.** What about the GI50 [4] of the same molecule?
**A.** 3.34 µM

**Q.** What about the TGI [4] of the same molecule?
**A.** 12.6 µM

**Q.** And the GI50 [5]?
**A.** 2.38 µM

**Q.** What about the TGI [5] of the same molecule?
**A.** 6.4 µM

**Q.** And the GI50 [6]?
**A.** 2.59 µM

**Q.** And the TGI [6]?
**A.** 7.7 µM

**Q.** What about the GI50 [7] of the same molecule?
**A.** 1.65 µM

**Q.** And the TGI [7]?
**A.** 3.76 µM

**Q.** What about the GI50 [8] of the same molecule?
**A.** 1.92 µM

**Q.** And the TGI [8]?
**A.** 3.93 µM

**Q.** What about the GI50 [9] of the same molecule?
**A.** 2.45 µM

**Q.** And the TGI [9]?
**A.** 6.7 µM

**Q.** And the GI50 [10]?
**A.** 3.45 µM

**Q.** And the TGI [10]?
**A.** 10.1 µM

**Q.** What about the GI50 [11] of the same molecule?
**A.** 3.1 µM

**Q.** What about the TGI [11] of the same molecule?
**A.** 7.68 µM

**Q.** And the GI50 [12]?
**A.** 1.71 µM

**Q.** What about the TGI [12] of the same molecule?
**A.** 3.86 µM

**Q.** What about the GI50 [13] of the same molecule?
**A.** 2.18 µM

**Q.** What about the TGI [13] of the same molecule?
**A.** 4.39 µM

**Q.** What about the GI50 [14] of the same molecule?
**A.** 1.73 µM

**Q.** What about the TGI [14] of the same molecule?
**A.** 3.2 µM

**Q.** What about the GI50 [15] of the same molecule?
**A.** 1.64 µM

**Q.** What about the TGI [15] of the same molecule?
**A.** 3.02 µM

**Q.** And the GI50 [16]?
**A.** 2.23 µM

**Q.** And the TGI [16]?
**A.** 5.42 µM

**Q.** And the GI50 [17]?
**A.** 2.13 µM

**Q.** What about the TGI [17] of the same molecule?
**A.** 8.18 µM

**Q.** And the GI50 [18]?
**A.** 2.54 µM

**Q.** And the TGI [18]?
**A.** 6.94 µM

**Q.** And the GI50 [19]?
**A.** 1.97 µM

**Q.** And the TGI [19]?
**A.** 3.66 µM

**Q.** And the GI50 [20]?
**A.** 3.18 µM

**Q.** And the TGI [20]?
**A.** 13.6 µM

**Q.** What about the GI50 [21] of the same molecule?
**A.** 1.23 µM

**Q.** What about the TGI [21] of the same molecule?
**A.** 2.79 µM

**Q.** What about the GI50 [22] of the same molecule?
**A.** 3.16 µM

**Q.** And the TGI [22]?
**A.** 9.37 µM

**Q.** What about the GI50 [23] of the same molecule?
**A.** 1.77 µM

**Q.** And the TGI [23]?
**A.** 3.17 µM

**Q.** What about the GI50 [24] of the same molecule?
**A.** 2.16 µM

**Q.** What about the TGI [24] of the same molecule?
**A.** 6.5 µM

**Q.** And the GI50 [25]?
**A.** 1.99 µM

**Q.** What about the TGI [25] of the same molecule?
**A.** 3.59 µM

**Q.** And the GI50 [26]?
**A.** 2.01 µM

**Q.** What about the TGI [26] of the same molecule?
**A.** 4.08 µM

**Q.** And the GI50 [27]?
**A.** 2.18 µM

**Q.** And the TGI [27]?
**A.** 7.04 µM

**Q.** What about the GI50 [28] of the same molecule?
**A.** 3.46 µM

**Q.** And the TGI [28]?
**A.** 16.1 µM

**Q.** What about the GI50 [29] of the same molecule?
**A.** 2.14 µM

**Q.** And the TGI [29]?
**A.** 5.18 µM

**Q.** What about the GI50 [30] of the same molecule?
**A.** 3.16 µM

**Q.** What about the TGI [30] of the same molecule?
**A.** 12.3 µM

**Q.** And the GI50 [31]?
**A.** 3.83 µM

**Q.** What about the TGI [31] of the same molecule?
**A.** 12.1 µM

**Q.** And the GI50 [32]?
**A.** 2.78 µM

**Q.** What about the TGI [32] of the same molecule?
**A.** 9.06 µM

**Q.** And the GI50 [33]?
**A.** 1.86 µM

**Q.** And the TGI [33]?
**A.** 3.3 µM

**Q.** What about the GI50 [34] of the same molecule?
**A.** 2.04 µM

**Q.** What about the TGI [34] of the same molecule?
**A.** 3.99 µM

**Q.** What about the GI50 [35] of the same molecule?
**A.** 3.44 µM

**Q.** And the TGI [35]?
**A.** 9.19 µM

**Q.** What about the GI50 [36] of the same molecule?
**A.** 3.37 µM

**Q.** What about the TGI [36] of the same molecule?
**A.** 9.92 µM

**Q.** What about the GI50 [37] of the same molecule?
**A.** 1.89 µM

**Q.** And the TGI [37]?
**A.** 3.71 µM

**Q.** And the GI50 [38]?
**A.** 1.76 µM

**Q.** What about the TGI [38] of the same molecule?
**A.** 3.23 µM

**Q.** What about the GI50 [39] of the same molecule?
**A.** 1.7 µM

**Q.** And the TGI [39]?
**A.** 3.32 µM

**Q.** What about the GI50 [40] of the same molecule?
**A.** 2.7 µM

**Q.** What about the TGI [40] of the same molecule?
**A.** 8.24 µM

**Q.** And the GI50 [41]?
**A.** 1.47 µM

**Q.** What about the TGI [41] of the same molecule?
**A.** 3.36 µM

**Q.** What about the GI50 [42] of the same molecule?
**A.** 1.85 µM

**Q.** And the TGI [42]?
**A.** 4.69 µM

**Q.** And the GI50 [43]?
**A.** 2.11 µM

**Q.** What about the TGI [43] of the same molecule?
**A.** 5.97 µM

**Q.** What about the GI50 [44] of the same molecule?
**A.** 3.35 µM

**Q.** What about the TGI [44] of the same molecule?
**A.** 10.8 µM

**Q.** What about the GI50 [45] of the same molecule?
**A.** 2.08 µM

**Q.** And the TGI [45]?
**A.** 4.87 µM

**Q.** What about the GI50 [46] of the same molecule?
**A.** 1.58 µM

**Q.** What about the TGI [46] of the same molecule?
**A.** 3 µM

**Q.** What about the GI50 [47] of the same molecule?
**A.** 1.83 µM

**Q.** What about the TGI [47] of the same molecule?
**A.** 5.46 µM

**Q.** And the GI50 [48]?
**A.** 2.2 µM

**Q.** What about the TGI [48] of the same molecule?
**A.** 4.89 µM

**Q.** And the GI50 [49]?
**A.** 1.65 µM

**Q.** And the TGI [49]?
**A.** 3.26 µM

**Q.** And the GI50 [50]?
**A.** 1.69 µM

**Q.** And the TGI [50]?
**A.** 3.09 µM

**Q.** And the GI50 [51]?
**A.** 2.62 µM

**Q.** And the TGI [51]?
**A.** 10.5 µM

**Q.** What about the GI50 [52] of the same molecule?
**A.** 1.99 µM

**Q.** And the TGI [52]?
**A.** 4.67 µM

**Q.** And the GI50 [53]?
**A.** 1.67 µM

**Q.** What about the TGI [53] of the same molecule?
**A.** 4.32 µM

**Q.** And the GI50 [54]?
**A.** 2.04 µM

**Q.** What about the TGI [54] of the same molecule?
**A.** 4.7 µM

**Q.** What about the GI50 [55] of the same molecule?
**A.** 1.44 µM

**Q.** What about the TGI [55] of the same molecule?
**A.** 3.95 µM

**Q.** And the GI50 [56]?
**A.** 2.14 µM

**Q.** And the TGI [56]?
**A.** 3.94 µM

**Q.** And the GI50 [57]?
**A.** 1.69 µM

**Q.** And the TGI [57]?
**A.** 3.29 µM
